{"source": "patent US20240173413A1", "about": "“Ultrasound Responsive Nanobubble Compositions and Methods of Production and Use Thereof” (University of Central Florida Research Foundation, lnc., priority 2021, published 2024)", "origin": "cited, not measured here", "system": "patients with postmenopausal osteoporosis", "conditions": "Phase III, development terminated", "note": "Where two headings read alike, the source gives them in different places.", "data": [{"smiles": "CC(C)(F)C[C@H](N[C@@H](c1ccc(-c2ccc(S(C)(=O)=O)cc2)cc1)C(F)(F)F)C(=O)NC1(C#N)CC1", "note": "[Odanacatib]", "values": [{"measurement": "adverse effects", "value": "increased risk of stroke"}, {"measurement": "adverse effects", "setting": "listed as ODN", "value": "cardio-cerebrovascular adverse effects"}]}]}
